Experimental data reported in patent US20070010401A1, “Synergistic combination of a glyphosate herbicide and a triazole fungicide” (Cheminova A/S, priority 2005, published 2007).

How the values were obtained:
Phakopsora pachyrhizi [1] = assay: Protective treatment of glyphosate resistant soybean plants three days prior to inoculation with soybean rust; type: in vivo; conditions: treated 3 days prior to inoculation, assessed four weeks after inoculation
Text: (§1) In the Colby method, also referred to as the Limpels method, the action to be expected (E) for a given active ingredient combination obeys the so-called Colby formula. According to Colby, the expected (additive) action of active ingredients I+II using p+q ppm of active ingredient is: [formula] where ppm equals the milligrams of active ingredient (=a.i.) per liter of spray mixture; X equals the % action by component (a) using p ppm of active ingredient; Y equals the % action by component (b) using q ppm of active ingredient. If the action actually observed (O) is greater than the expected action (E), then the action of the combination is superadditive, i.e. there is a synergistic effect. For a more detailed description of the Colby formula, see Colby, S. R. “Calculating synergistic and antagonistic responses of herbicide combination,” Weeds, Vol. 15, pages 20-22; (1967); see also Limpel et al., Proc. NEWCC 16: 48-53 (1962), both of which are herein incorporated by reference in their entirety.
Protective Treatment. […] Four weeks after inoculation, disease incidence and severity is determined on the first trifoliate. […]

Phakopsora pachyrhizi [2] = assay: Curative treatment of glyphosate resistant soybean plants three days after inoculation with soybean rust; type: in vivo; conditions: treated 3 days after inoculation, assessed four weeks after inoculation
Text: as §1
Curative treatment. […] Four weeks after inoculation, disease incidence and severity is determined on the first trifoliate. […]

SMILES | Observed control (O) % (Phakopsora pachyrhizi [1]; 30 g AI/hectare) [%] | Observed control (O) % (Phakopsora pachyrhizi [2]; 30 g AI/hectare) [%] | Observed control (O) % (Phakopsora pachyrhizi [1]; 100 g AI/hectare) [%] | Observed control (O) % (Phakopsora pachyrhizi [2]; 100 g AI/hectare) [%]
OC(Cn1cncn1)(c1ccc(F)cc1)c1ccccc1F (stereo not shown) [Flutriafol, flutriafol] | 11 | 39 |  | 
O=C(O)CNCP(=O)(O)O [Glyphosate (acid), N-(phosphonomethyl)glycine] |  |  | 82 | 27
